From patent EP1487791B1, “A NOVEL ANTIFUNGAL MOLECULE 2-(3,4-DIMETHYL-2,5-DIHYDRO-1H-PYRROL-2-YL)- METHYLETHYL PENTANOATE” (priority 2002, dated 2003)
Converted amounts (≈) assume the structure as drawn.

Legend:
Type in all cases: cell-based
A. fumigatus = test: Microbroth dilution assay; set-up: key: +ve if medium appeared clear with out any growth of fungi; -ve if growth was there
Protocol: (§1) Pathogenic strains of fungi were obtained from the Mycology Department of Vallabhbhai Patel Chest Institute, Delhi. All the strains were grown on Sabouraud dextrose agar at 37°C. The conidia form these cultures were harvested and suspended in Sabouraud maltose broth. The number of conidia was counted using haemocytometer and their number in the suspension was adjusted to as per need of the experiment.
(§2) The antifungal susceptibility of the fungi to various fractions or the purified component was assayed by the microbroth, dilution method (Forthergill A.W. and McGough A.W., 1995, Clin. Microbiol. Procedure Handbook. In Vitro susceptibility Testing of Yeast, 5.15.1-5.15.15). The fungal spores were harvested from 96-h cultures and their number adjusted to 1x10^6 per ml. The Sabouraud Dextrose medium was dissolved in glass double distilled water and autoclaved at 10 psi for 15 min. 90-µl medium was added into the wells of cell culture plates. The different concentrations of the extract, fractions or the purified compound were prepared in duplicate wells and then the wells were inoculated with 10 µl of spore suspension. The plates were incubated at 37°C and examined macroscopically after 48 h for the growth of fungal mycelia. The activity was represented as -ve if growth was there and +ve if medium appeared clear with out any growth of fungi.
(§3) The antifungal susceptibility of the fungi to the purified compound was assayed by the microbroth dilution method. The different concentrations of the purified compound ranging from 21.87 to 350 µg/ml were prepared in duplicate wells by twofold dilution method. The test was done as described above. […] Table 1: Activity of the compound against Aspergillus sp. after 48 hrs.

A. niger = test: Microbroth dilution assay; set-up: key: +ve if medium appeared clear with out any growth of fungi; -ve if growth was there
Protocol: as §1, §2, §3

A.flavus = test: Microbroth dilution assay; set-up: key: +ve if medium appeared clear with out any growth of fungi; -ve if growth was there
Protocol: as §1, §2, §3

Aspergillus sp. = test: Microbroth dilution assay, MIC over the three species; conditions: no visual growth of the three species of Aspergillus, 48 h
Protocol: as §1
as §2, with “fungi. […]” for “fungi.”

A. flavus = test: Disc diffusion assay; conditions: Aspergillus flavus, 48 hrs, read-out: Diameter of zone of inhibition
Protocol: as §1
(§4) The disc diffusion test was performed as per described in the section of details of invention. Amphotericin B 1.25 µg/disc was used in assay as positive control standard drug. Additional discs impregnated with equivalent amount of solvent were also used in the assay as negative controls (Fig: 5). […] Table 2: Antifungal activity of compound by disc diffusion method

A.niger = test: Disc diffusion assay; conditions: 48 hrs
Protocol: as §1, §4

Aspergillus = test: Disc diffusion assay, overall result for Aspergillus; conditions: concentration developing zone of inhibition of 6.0-mm diameter
Protocol: as §1
The leftover residue was finally dissolved in methanol. Dried fractions were examined for their antifungal activity.
as §4

CCCCC(=O)OC(C)CC1NCC(C)=C1C (stereo not drawn) [PC-1, 2-(3,4-dimethyl-2,5-dihydro-1H-pyrrol-2-yl)-1-methylethyl pentanoate]
Activity against Aspergillus sp. after 48 hrs (A. fumigatus; 21.87 µg/ml): - | Activity against Aspergillus sp. after 48 hrs (A. fumigatus; 43.75 µg/ml): - | Activity against Aspergillus sp. after 48 hrs (A. fumigatus; 87.50 µg/ml): + | Activity against Aspergillus sp. after 48 hrs (A. fumigatus; 175.00 µg/ml): + | Activity against Aspergillus sp. after 48 hrs (A. fumigatus; 350.00 µg/ml): + | Activity against Aspergillus sp. after 48 hrs (A. niger; 21.87 µg/ml): - | Activity against Aspergillus sp. after 48 hrs (A. niger; 43.75 µg/ml): - | Activity against Aspergillus sp. after 48 hrs (A. niger; 87.50 µg/ml): + | Activity against Aspergillus sp. after 48 hrs (A. niger; 175.00 µg/ml): + | Activity against Aspergillus sp. after 48 hrs (A. niger; 350.00 µg/ml): + | Activity against Aspergillus sp. after 48 hrs (A.flavus; 21.87 µg/ml): - | Activity against Aspergillus sp. after 48 hrs (A.flavus; 43.75 µg/ml): - | Activity against Aspergillus sp. after 48 hrs (A.flavus; 87.50 µg/ml): + | Activity against Aspergillus sp. after 48 hrs (A.flavus; 175.00 µg/ml): + | Activity against Aspergillus sp. after 48 hrs (A.flavus; 350.00 µg/ml): + | MIC (Aspergillus sp.): 87.5 mg/L (≈ 366 µM) | zone of inhibition at 5 µg/disc (A. flavus; 5.0 µg/disc): 6.15 mm | zone of inhibition at 10 µg/disc (A. flavus; 10.0 µg/disc): 8.1 mm | zone of inhibition at 20 µg/disc (A. flavus; 20.0 µg/disc): 9 mm | Diameter of zone of inhibition (A.niger; 5.0 µg/disc): 6.40 mm | zone of inhibition at 5 µg/disc (A.niger; Aspergillus niger, 5.0 µg/disc, read-out: Diameter of zone of inhibition): 6.4 mm | zone of inhibition at 10 µg/disc (A.niger; Aspergillus niger, 10.0 µg/disc, read-out: Diameter of zone of inhibition): 8.6 mm | MIC (Aspergillus): 5 µg/disc | MIC (Aspergillus; listed as novel antifungal lead molecule): 5.0 µg/disc
